From ChEMBL document CHEMBL1156596, “Overcoming undesirable CYP1A2 inhibition of pyridylnaphthalene-type aldosterone synthase inhibitors: influence of heteroaryl derivatization on potency and selectivity” (J Med Chem, 2008) come the findings set out here.

The target in one series is T1, CYP17 (Homo sapiens, UniProt P05093).
T1 sequence (P05093 whole entry): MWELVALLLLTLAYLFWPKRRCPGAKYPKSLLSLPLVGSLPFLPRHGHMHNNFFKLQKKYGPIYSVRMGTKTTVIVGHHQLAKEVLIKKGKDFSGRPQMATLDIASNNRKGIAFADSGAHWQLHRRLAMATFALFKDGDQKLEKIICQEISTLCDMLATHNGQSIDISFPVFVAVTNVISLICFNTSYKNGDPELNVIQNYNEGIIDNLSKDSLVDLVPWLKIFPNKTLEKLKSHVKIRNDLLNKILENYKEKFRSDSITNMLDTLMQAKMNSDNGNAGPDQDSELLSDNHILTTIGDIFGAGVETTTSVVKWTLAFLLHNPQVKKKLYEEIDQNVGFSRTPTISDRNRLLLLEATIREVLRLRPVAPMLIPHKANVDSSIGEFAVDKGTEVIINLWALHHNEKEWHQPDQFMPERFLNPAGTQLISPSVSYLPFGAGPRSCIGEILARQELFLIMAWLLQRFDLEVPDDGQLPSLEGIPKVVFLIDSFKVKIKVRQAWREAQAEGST
The series is described as follows: Inhibition of human recombinant CYP17 expressed in Escherichia coli at 2 uM.

The next series addresses T2, CYP19 (aromatase) (Homo sapiens, UniProt P11511).
T2 sequence (P11511 whole entry): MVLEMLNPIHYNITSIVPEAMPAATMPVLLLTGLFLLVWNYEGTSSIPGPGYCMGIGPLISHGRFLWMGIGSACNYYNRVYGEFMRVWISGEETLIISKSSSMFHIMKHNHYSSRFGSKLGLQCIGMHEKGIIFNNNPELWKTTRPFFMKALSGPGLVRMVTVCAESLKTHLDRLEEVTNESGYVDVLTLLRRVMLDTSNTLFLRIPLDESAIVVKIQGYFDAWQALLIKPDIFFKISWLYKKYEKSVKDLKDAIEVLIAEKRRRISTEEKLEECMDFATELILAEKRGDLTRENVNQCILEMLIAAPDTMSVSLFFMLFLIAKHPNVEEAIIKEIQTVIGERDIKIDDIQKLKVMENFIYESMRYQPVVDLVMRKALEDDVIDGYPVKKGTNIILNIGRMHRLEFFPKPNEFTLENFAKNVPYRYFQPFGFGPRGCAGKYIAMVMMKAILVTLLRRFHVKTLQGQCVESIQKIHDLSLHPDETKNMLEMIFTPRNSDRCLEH
As to the kind of experiment: Inhibition of human placental CYP19 at 500 nM.

A short description of series [1]: Plasma concentration in Wistar rat plasma at 5 mg/kg, po after 4 hrs. The class given is ADME, organism-based. Further details: dose 5 mg/kg, route oral.
A short description of series [2]: Cmax in Wistar rat at 5 mg/kg, po. It counts as ADME, organism-based. On the set-up: dose 5 mg/kg, route oral. The settings on record: in vivo.
Series [3] is described as follows: Plasma concentration in Wistar rat plasma at 5 mg/kg, po after 6 hrs. On the set-up: dose 5 mg/kg, route oral. The class given is ADME, organism-based.
The next series concerns the target Cytochrome P450 2C19 (Homo sapiens, UniProt P33261). The series is described as follows: Inhibition of human recombinant CYP2C19 expressed in insect microsomes. The class given is ADME, Microsome.

Sequence of Cytochrome P450 2C19 (P33261 whole entry): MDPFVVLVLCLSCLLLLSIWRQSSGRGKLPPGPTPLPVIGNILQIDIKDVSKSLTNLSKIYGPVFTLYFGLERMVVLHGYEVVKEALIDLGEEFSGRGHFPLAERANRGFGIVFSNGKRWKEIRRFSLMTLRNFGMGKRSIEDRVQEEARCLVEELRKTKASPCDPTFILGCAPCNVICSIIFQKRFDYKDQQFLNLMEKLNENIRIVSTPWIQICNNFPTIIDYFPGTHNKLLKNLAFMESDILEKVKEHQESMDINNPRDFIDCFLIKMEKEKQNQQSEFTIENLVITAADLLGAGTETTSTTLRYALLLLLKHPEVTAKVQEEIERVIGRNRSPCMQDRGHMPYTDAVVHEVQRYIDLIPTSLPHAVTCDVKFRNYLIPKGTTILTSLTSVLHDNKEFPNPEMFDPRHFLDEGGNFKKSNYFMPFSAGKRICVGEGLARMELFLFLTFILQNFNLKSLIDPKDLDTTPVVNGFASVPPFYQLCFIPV

What is called inhibition is the drop in the measured response relative to a control, in per cent. Broadly, the Cmax is the peak of the concentration-time curve. In general, IC50 refers to the concentration that inhibits the measured activity by half. With `COc1ccc2cc(-c3cncc4ccccc34)ccc2c1`, the inhibition at 2 µM at CYP17 worked out at 39%. The molecule also returned an inhibition at 0.5 µM on CYP19 (aromatase) of 7%. Besides, in series [1], the concentration at 4 h stood at 76.3 ng/mL. The molecule further had a Cmax in series [2] of 81 ng/mL. Also, the concentration at 6 h in series [3] came to 81.4 ng/mL. The IC50 at Cytochrome P450 2C19 was determined as 3.54 µM.
